Results from patent publication US20190375708A1 (VenatoRx Pharmaceuticals, Inc., priority 2018, published 2019).

How the values were obtained:
[1] = system: HBV replication in HepAD38 cells; experiment: Anti-HBV replication assay in HepAD38 cells (QPCR of extracellular HBV DNA); type: cell-based, HBV (genotype D, serotype ayw); details: Hepatitis B virus, 168 h, 7 days incubation, extracellular HBV DNA by QPCR, read-out: Anti-HBV EC50
Procedure, shortened: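 Compounds (1 log10 serial dilutions, […]) were left 7 days on tetracycline-free HepAD38 cultures, a HepG2 line with tet-controlled HBV genotype D. EC50 came from 4-parameter regression of percent inhibition versus vehicle, using supernatant HBV DNA copies/mL measured by QPCR.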

[2] = In vitro cytotoxicity assay (MTT cell viability) in HepG2 cells; type: cell-based, human; details: human
Procedure, shortened: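 Viability measured by MTT conversion, absorbance at 492 nm, as percent of vehicle-treated wells. Compounds spanned 30 μM to 1.0 nM in half-log steps over a 7-day exposure of parental HepG2 cells; CC50 derived by 4-parameter curve fit.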

Row | Compound | EC50 [1] [µM] | CC50 at 7 days [2] [µM]
1 | Cc1cc(NC(=O)c2c(C)c(C(=O)C(=O)NC(C)(C)c3noc(CN(C)C)n3)n(C)c2C)cnc1F [Example 200, 5-(2-((2-(5-((dimethylamino)methyyl)-1,2,4-oxadiazol-3-yl)propan-2-yl)amino)-2-oxoacetyl)-N-(6-fluoro-5-methylpyridin-3-yl)-1,2,4-trimethyl-1H-pyrrole-3-carboxamide] | 0.05 to 0.499 | > 30
2 | Cc1c(C(=O)Nc2ccc(F)nc2)c(C)n(C)c1C(=O)C(=O)N[C@H]1C2CC3CC1C[C@](O)(C3)C2 [Example 92, N-(6-fluoropyridin-3-yl)-5-(2-(((1R,2s,3S,5s,7s)-5-hydroxyadamantan-2-yl)amino)-2-oxoacetyl)-1,2,4-trimethyl-1H-pyrrole-3-carboxamide] | 0.05 to 0.499 | > 30
3 | Cc1cc(NC(=O)c2c(C)c(C(=O)C(=O)NC34CC5CC(CC(O)(C5)C3)C4)n(C)c2C)cnc1F [Example 114, N-(6-fluoro-5-methylpyridin-3-yl)-5-(2-(((1r,3s,5R,7S)-3-hydroxyadamantan-1-yl)amino)-2-oxoacetyl)-1,2,4-trimethyl-1H-pyrrole-3-carboxamide] | < 0.05 | > 30
4 | Cc1c(C(=O)Nc2ccnc(F)c2)c(C)n(C)c1C(=O)C(=O)NC(C)(C)C [Example 89, 5-(2-(tert-butylamino)-2-oxoacetyl)-N-(2-fluoropyridin-4-yl)-1,2,4-trimethyl-1H-pyrrole-3-carboxamide] | < 0.05 | > 30
5 | Cc1noc([C@@H](C)NC(=O)C(=O)c2c(Cl)c(C(=O)Nc3ccc(F)c(Cl)c3)c3n2CCC3)n1 [Example 554, (R)-6-chloro-N-(3-chloro-4-fluorophenyl)-5-(2-((1-(3-methyl-1,2,4-oxadiazol-5-yl)ethyl)amino)-2-oxoacetyl)-2,3-dihydro-1H-pyrrolizine-7-carboxamide] | < 0.05 | 5 to 30
6 | Cc1cc(NC(=O)c2c(C)c(C(=O)C(=O)N[C@@H]3CCCNC3=O)n(C)c2C)ccc1F [Example 673, (R)-N-(4-fluoro-3-methylphenyl)-1,2,4-trimethyl-5-(2-oxo-2-((2-oxopiperidin-3-yl)amino)acetyl)-1H-pyrrole-3-carboxamide] | < 0.05 | > 30
7 | Cc1cc(NC(=O)c2c(Cl)c(C(=O)C(=O)NCC(C)(C)CO)n3c2CCC3)ccc1F [Example 549, 6-chloro-N-(4-fluoro-3-methylphenyl)-5-(2-((3-hydroxy-2,2-dimethylpropyl)amino)-2-oxoacetyl)-2,3-dihydro-1H-pyrrolizine-7-carboxamide] | 0.5 to 1 | > 30
8 | Cc1c(C(=O)Nc2ccc(F)c(Cl)c2)c2n(c1C(=O)C(=O)NC1(CO)CCC1)CCCC2 [Example 452, N-(3-chloro-4-fluorophenyl)-3-(2-((1-(hydroxymethyl)cyclobutyl)amino)-2-oxoacetyl)-2-methyl-5,6,7,8-tetrahydroindolizine-1-carboxamide] | < 0.05 | 5 to 30
9 | Cc1cc(NC(=O)c2c(C)c(C(=O)C(=O)N[C@H](C)CO)n(C)c2C)ccc1F [Example 219, (R)-N-(4-fluoro-3-methylphenyl)-5-(2-((1-hydroxypropan-2-yl)amino)-2-oxoacetyl)-1,2,4-trimethyl-1H-pyrrole-3-carboxamide] | < 0.05 | > 30
10 | CC(=O)N1C[C@@H]2[C@H](C1)[C@H]2NC(=O)C(=O)c1c(C)c(C(=O)Nc2ccc(F)c(C)c2)c(C)n1C [Example 643, 5-(2-(((1R,5S,6s)-3-acetyl-3-azabicyclo[3.1.0]hexan-6-yl)amino)-2-oxoacetyl)-N-(4-fluoro-3-methylphenyl)-1,2,4-trimethyl-1H-pyrrole-3-carboxamide] | 0.05 to 0.499 | > 30
11 | Cc1cc(NC(=O)c2c(C)c(C(=O)C(=O)N[C@H]3C4CC5CC3C[C@](O)(C5)C4)n(C)c2C)cnc1F [Example 122, N-(6-fluoro-5-methylpyridin-3-yl)-5-(2-(((1R,2s,3S,5s,7s)-5-hydroxyadamantan-2-yl)amino)-2-oxoacetyl)-1,2,4-trimethyl-1H-pyrrole-3-carboxamide] | < 0.05 | > 30
12 | Cc1noc(C(C)NC(=O)C(=O)c2c(C)c(C(=O)Nc3ccc(F)c(C)c3)c(C)n2C)n1 (stereo not shown) [Example 82, N-(4-fluoro-3-methylphenyl)-1,2,4-trimethyl-5-(2-((1-(3-methyl-1,2,4-oxadiazol-5-yl)ethyl)amino)-2-oxoacetyl)-1H-pyrrole-3-carboxamide] | < 0.05 | > 30
13 | Cc1c(C(=O)Nc2cc(F)c(F)c(F)c2)c(C)n(C)c1C(=O)C(=O)Nc1cccnc1 [Example 320, 1,2,4-trimethyl-5-(2-oxo-2-(pyridin-3-ylamino)acetyl)-N-(3,4,5-trifluorophenyl)-1H-pyrrole-3-carboxamide] | < 0.05 | > 30
14 | CC(C)(CO)CNC(=O)C(=O)c1c(Cl)c(C(=O)Nc2ccc(F)c(F)c2)c2n1CCC2 [Example 559, 6-chloro-N-(3,4-difluorophenyl)-5-(2-((3-hydroxy-2,2-dimethylpropyl)amino)-2-oxoacetyl)-2,3-dihydro-1H-pyrrolizine-7-carboxamide] | 0.05 to 0.499 | > 30
15 | Cc1cc(NC(=O)c2c(C)c(C(=O)C(=O)NC3CCC(F)(F)CC3)n(C)c2C)ccc1F [Example 250, 5-(2-((4,4-difluorocyclohexyl)amino)-2-oxoacetyl)-N-(4-fluoro-3-methylphenyl)-1,2,4-trimethyl-1H-pyrrole-3-carboxamide] | < 0.05 | 5 to 30
16 | O=C(N[C@H]1CCC[C@H]1O)C(=O)c1c(Cl)c(C(=O)Nc2ccc(F)c(F)c2)c2n1CCCC2 [Example 519, 2-chloro-N-(3,4-difluorophenyl)-3-(2-(((1S,2R)-2-hydroxycyclopentyl)amino)-2-oxoacetyl)-5,6,7,8-tetrahydroindoliznie-1-carboxamide] | 0.05 to 0.499 | 5 to 30
17 | COC(=O)[C@H](NC(=O)C(=O)c1c(C)c(C(=O)Nc2ccc(F)c(C)c2)c(C)n1C)[C@H](C)O [Example 28, methyl (2-(4-((4-fluoro-3-methylphenyl)carbamoyl)-1,3,5-trimethyl-1H-pyrrol-2-yl)-2-oxoacetyl)-D-threoninate] | < 0.05 | > 30
18 | COc1c(C(=O)Nc2ccc(F)c(F)c2)c(C)n(C)c1C(=O)C(=O)NC1(C(F)(F)F)CC1 [Example 377, N-(3,4-difluorophenyl)-4-methoxy-1,2-dimethyl-5-(2-oxo-2-((1-(trifluoromethyl)cyclopropyl)amino)acetyl)-1H-pyrrole-3-carboxamide] | < 0.05 | > 30
19 | Cc1cc(NC(=O)c2c(C)c(C(=O)C(=O)NC(C)(C)C)n(CCO)c2C)ccc1F [Example 71, 5-(2-(tert-butylamino)-2-oxoacetyl)-N-(4-fluoro-3-methylphenyl)-1-(2-hydroxyethyl)-2,4-dimethyl-1H-pyrrole-3-carboxamide] | > 1 | > 30
20 | Cc1cc(NC(=O)c2c(C)c(C(=O)C(=O)NC(C)(C)CO)n(CCO)c2C)ccc1F [Example 50, N-(4-fluoro-3-methylphenyl)-5-(2-((1-hydroxy-2-methylpropan-2-yl)amino)-2-oxoacetyl)-1-(2-hydroxyethyl)-2,4-dimethyl-1H-pyrrole-3-carboxamide] | > 1 | > 30
21 | Cc1cc(NC(=O)c2c(C)c(C(=O)C(=O)NCC(C)(C)CO)n3c2CCCC3)cnc1F [Example 476, N-(6-fluoro-5-methylpyridin-3-yl)-3-(2-((3-hydroxy-2,2-dimethylpropyl)amino)-2-oxoacetyl)-2-methyl-5,6,7,8-tetrahydroindolizine-1-carboxamide] | > 1 | 5 to 30
22 | Cc1cc(NC(=O)c2c(C)c(C(=O)C(=O)N[C@@H]3CCC[C@H](O)C3)n(C)c2C)ccc1F [Example 330, N-(4-fluoro-3-methylphenyl)-5-(2-(((1R,3S)-3-hydroxycyclohexyl)amino)-2-oxoacetyl)-1,2,4-trimethyl-1H-pyrrole-3-carboxamide] | < 0.05 | > 30
23 | COc1c(C(=O)Nc2ccc(F)c(F)c2)c(C)n(C)c1C(=O)C(=O)NC(C)(C)CO [Example 381, N-(3,4-difluorophenyl)-5-(2-((1-hydroxy-2-methylpropan-2-yl)amino)-2-oxoacetyl)-4-methoxy-1,2-dimethyl-1H-pyrrole-3-carboxamide] | 0.05 to 0.499 | > 30
24 | Cc1cc(NC(=O)c2c(C)c(C(=O)C(=O)NC3CCN(C4CCOCC4)CC3)n(C)c2C)ccc1F [Example 653, N-(4-fluoro-3-methylphenyl)-1,2,4-trimethyl-5-(2-oxo-2-((1-(tetrahydro-2H-pyran-4-yl)piperidin-4-yl)mino)acetyl)-1H-pyrrole-3-carboxamide] | 0.05 to 0.499 | > 30
25 | Cc1noc(C(NC(=O)C(=O)c2cc(C(=O)Nc3ccc(F)c(C)c3)c3n2CCCC3)C(C)C)n1 (stereo not shown) [Example 394, N-(4-fluoro-3-methylphenyl)-3-(2-((2-methyl-1-(3-methyl-1,2,4-oxadiazol-5-yl)propyl)amino)-2-oxoacetyl)-5,6,7,8-tetrahydroindolizine-1-carboxamide] | 0.05 to 0.499 | > 30
26 | Cc1c(C(=O)Nc2ccc(F)c(F)c2)c(C)n(C)c1C(=O)C(=O)Nc1ccccn1 [Example 294, N-(3,4-difluorophenyl)-1,2,4-trimethyl-5-(2-oxo-2-(pyridin-2-ylamino)acetyl)-1H-pyrrole-3-carboxamide] | 0.5 to 1 | > 30
